# Assay results reported in patent US6825348B2, “Antiviral compounds” (Academia Sinica, priority 2002, dated 2004).
# Like-named read-outs stand apart in the source and are kept apart here.
# Assays:
# [1] = tested on: herpes simplex type 1 virus (HSV-1) (KOS); assay: Inhibition of HSV-1 cytopathogenicity in Vero cell culture; type: cell-based; conditions: for IC50 HSV-1 (KOS): Vero cell culture, 50% inhibition of virus-induced cytopathogenicity, mean of duplicates, for 1:1 (W/W) mixtures IC50 refers to known antiviral drugs
# [2] = tested on: herpes simplex type 2 virus (HSV-2) (G); assay: Inhibition of HSV-2 cytopathogenicity in Vero cell culture; type: cell-based; conditions: 50% inhibition of cytopathogenicity, for 1:1 mixtures IC50 refers to known antiviral drugs
# [3] = tested on: thymidine kinase-positive (TK+) varicella-zoster virus (YS); assay: Inhibition of TK+ VZV cytopathogenicity in Vero cell culture; type: cell-based; conditions: Vero cell culture; 50% inhibition of cytopathogenicity; for 1:1 mixtures IC50 refers to known antiviral drugs
# [4] = tested on: thymidine kinase-deficient (TK−) varicella-zoster virus (YS/R); assay: microbe, parasite or virus in culture; type: cell-based; conditions: for IC50 TK−VZV (YS/R): Vero cell culture, 50% inhibition of cytopathogenicity, for 1:1 mixtures IC50 refers to known antiviral drugs
# [5] = tested on: human cytomegalovirus (AD-169); assay: Inhibition of HCMV cytopathogenicity in Vero cell culture; type: cell-based; conditions: for IC50 HCMV (AD-169): Vero cell culture, 50% inhibition of cytopathogenicity, for 1:1 mixtures IC50 refers to known antiviral drugs
# [6] = tested on: HeLa cells
# [7] = tested on: Vero cells
# [8] = molecular target: T1, calf mucosal adenosine deaminase (ADA, EC 3.5.4.4) (Bos taurus, UniProt P56658); assay: Substrate activity and competitive inhibition of adenosine deaminase; type: biochemical
# T1 sequence (P56658 1-363): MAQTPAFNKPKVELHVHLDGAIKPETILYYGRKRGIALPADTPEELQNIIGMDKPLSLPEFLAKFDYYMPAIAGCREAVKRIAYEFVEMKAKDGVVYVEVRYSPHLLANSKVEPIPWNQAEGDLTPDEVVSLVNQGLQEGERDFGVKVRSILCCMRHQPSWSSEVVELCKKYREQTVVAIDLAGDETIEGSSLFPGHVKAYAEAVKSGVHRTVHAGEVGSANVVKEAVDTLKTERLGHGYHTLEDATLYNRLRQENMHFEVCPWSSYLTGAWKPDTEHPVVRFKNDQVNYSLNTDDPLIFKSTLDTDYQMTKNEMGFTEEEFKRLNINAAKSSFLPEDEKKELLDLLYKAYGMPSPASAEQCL
# [9] = tested on: HIV-1 (IIIB); assay: microbe, parasite or virus in culture; type: cell-based; conditions: Human immunodeficiency virus 1, IIIB, MT4, read-out: IC50 HIV-1 (IIIB)
# [10] = tested on: HIV-2 (LAV-2); assay: Inhibition of HIV-2 cytopathogenicity in MT4 cells; type: cell-based, human immunodeficiency virus; conditions: Human immunodeficiency virus 2, MT4, read-out: IC50 HIV-2 (LAV-2)
# [11] = tested on: moloney murine sarcoma virus (MSV); assay: Inhibition of MSV cytopathogenicity in CEM cells (cell-protection assay); type: cell-based; conditions: Moloney murine sarcoma virus, CCRF-CEM, read-out: IC50 MSV
# [12] = tested on: HSV-1 (KOS); assay: Anti-HSV-1 activity in vivo, HSV-1-induced mortality in NMRI mice; conditions: 6 days; for mean day of animal death / mean day of symptom initiation: terminated day 21; for responders at 100 mg/kg / responders at 150 mg/kg / responders at 250 mg/kg: Human alphaherpesvirus 1, ip, 504 h
# [13] = Lipophilicity, 1-octanol/water partition coefficient; conditions: 1-octanol/phosphate buffer
# [14] = Solubility in water (phosphate buffer, UV absorbance); conditions: 0.10 m phosphate buffer, pH 6.8, aqueous buffer, thermodynamic from solid
# [15] = tested on: Snake venom phosphodiesterase; assay: Activity of snake venom phosphodiesterase against nucleotide analogs; conditions: pH 9.2, 37° C., 8 h
compound,measurement,setting,value
"Nc1nc2ncn(COCCCl)c2c(=O)[nH]1 [Compound 7, 7-[(2-Chloroethoxy)methy]guanine]",IC50 HSV-1 (KOS),[1],>128 µg/mL
same,IC50 HSV-2 (G),[2],>128 µg/mL
same,IC50 TK+VZV (YS),[3],>128 µg/mL
same,IC50 TK−VZV (YS/R),[4],>128 µg/mL
same,IC50 HCMV (AD-169),[5],>128 µg/mL
same,"HeLa cell, concentration causing microscopically visible change or disruption in about 50% of the cell sheet",[6],157 µg/mL
same,"Vero cell, concentration causing microscopically visible change or disruption in about 50% of the cell sheet",[7],145 µg/mL
"Nc1ncnc2c1ncn2[C@@H]1O[C@H](COP(=O)(O)O)[C@@H](OP(=O)(O)COCCn2cnc3ncnc(N)c32)[C@H]1O [Compound 24, 9-[5′-O-(phosphono)-β-D-furanosyl]adenine-3′-[[1-(adenin-7-yl-ethoxy)methyl]phosphonate]]",Vmax less than that of ara-A 3,[8]; ADA substrate,about 95%
same,type of ADA inhibition in words,[8]; ara-A used as substrate,competitive inhibition
same,rel. Vmax,"[8]; compound as ADA substrate, relative to ara A 3 = 1.0",9.78 × 10^−2
same,Ki,[8]; inhibition of ADA with ara-A 3 as substrate,99.7 µM
same,IC50,"[1]; Human alphaherpesvirus 1, Vero, read-out: IC50 HSV-1 (KOS)",7 µg/mL
same,IC50,"[4]; Human alphaherpesvirus 3, Vero, read-out: IC50 TK−VZV (YS/R)",4.2 µg/mL
same,IC50,"[5]; Human betaherpesvirus 5, AD169, Vero, read-out: IC50 HCMV (AD-169)",11 µg/mL
same,IC50,[9],5.9 µg/mL
same,IC50,[10],6.4 µg/mL
same,IC50,[11],17 µg/mL
same,mean day of animal death,[12]; 100 mg/kg/day i.p.,19.5 ± 1.2 days
same,mean day of symptom initiation,[12]; 100 mg/kg/day i.p.,16.0 ± 1.7 days
same,protection against HSV-induced mortality,[12]; 150 mg/kg dose level i.p.,full protection
same,mean day of animal death,[12]; 150 mg/kg/day i.p.,>21 days
same,mean day of symptom initiation,[12]; 150 mg/kg/day i.p.,19.3 ± 1.6 days
same,mean day of animal death,[12]; 250 mg/kg/day i.p.,>21 days
same,mean day of symptom initiation,[12]; 250 mg/kg/day i.p.,>21 days
same,responders at 100 mg/kg,"[12]; 100 mg/kg/day i.p., read-out: percentage of HSV-1-infected mice alive at day 21 postinfection",90%
same,responders at 100 mg/kg,"[12]; 100 mg/kg/day i.p., read-out: percentage of HSV-1-infected mice without symptoms at day 21 postinfection",70%
same,responders at 150 mg/kg,"[12]; 150 mg/kg/day i.p., read-out: percentage of HSV-1-infected mice alive at day 21 postinfection",100%
same,responders at 150 mg/kg,"[12]; 150 mg/kg/day i.p., read-out: percentage of HSV-1-infected mice without symptoms at day 21 postinfection",85%
same,responders at 250 mg/kg,"[12]; 250 mg/kg/day i.p., read-out: percentage of HSV-1-infected mice alive at day 21 postinfection",100%
same,responders at 250 mg/kg,"[12]; 250 mg/kg/day i.p., read-out: percentage of HSV-1-infected mice without symptoms at day 21 postinfection",100%
same,logP at […],[13],0.12
same,solubility at 20 h,[14],3080 µg/mL
same,yield of 5′-dephosphorylated product with snake venom phosphodiesterase,[15],about 80%
"Nc1ncnc2ncn(COCCCl)c12 [Compound 12, 7-[(2-Chloroethoxy)methy]adenine]",IC50 HSV-1 (KOS),[1],>128 µg/mL
same,IC50 HSV-2 (G),[2],>128 µg/mL
same,IC50 TK+VZV (YS),[3],>128 µg/mL
same,IC50 TK−VZV (YS/R),[4],>128 µg/mL
same,IC50 HCMV (AD-169),[5],>128 µg/mL
same,"HeLa cell, concentration causing microscopically visible change or disruption in about 50% of the cell sheet",[6],169 µg/mL
same,"Vero cell, concentration causing microscopically visible change or disruption in about 50% of the cell sheet",[7],165 µg/mL
